# Test results: patent US5741671A, “Isolation cloning and expression of transmembrane water channel aquaporin 1(AQP1)” (The Johns Hopkins University, priority 1995, dated 1998)
# “Also recorded” adds a separate entry of the source.
# Columns and labels:
# [1] = test system: Red cell water channels; conditions: cited from earlier work
# [2] = biological target: T1, AQP5 (Rattus norvegicus, UniProt P47864); test: Xenopus oocyte swelling assay, AQP5 (salivary) cRNA-injected oocytes (Example 11); format: cell-based
# T1 construct: the entire open reading frame of the salivary cDNA; expressed in transfected cells; host or cells: Xenopus oocytes injected with cRNA from expression construct pXβG
# T1 sequence (P47864 whole entry): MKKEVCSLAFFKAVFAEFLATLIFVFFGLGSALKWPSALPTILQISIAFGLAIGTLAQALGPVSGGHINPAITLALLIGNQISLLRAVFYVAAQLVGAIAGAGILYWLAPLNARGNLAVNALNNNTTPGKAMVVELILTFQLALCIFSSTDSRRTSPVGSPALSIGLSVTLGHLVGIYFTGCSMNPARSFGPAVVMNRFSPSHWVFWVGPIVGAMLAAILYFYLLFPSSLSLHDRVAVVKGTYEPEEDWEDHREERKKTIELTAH
# Method: Functional Expression in Oocytes-A 1-kb BamHI fragment containing the 5'untranslated sequence and the entire open reading frame of the salivary cDNA was blunt-end-ligated into the BglII site of the Xenopus expression construct pXβG, which contains the HindIII-Pst insert of pSP64T in pBS II KS (Preston et al., 1992, Science, 256:385-387). Capped cRNA was synthesized in vitro after digestion with Xbal (Preston et al., 1993). Defolliculated stage V-VI Xenopus oocytes were injected with 50 nl of water or up to 5 ng of sample cRNAs and incubated for 3 days at 18° C. in 200 mosM modified Barth's buffer. The oocytes were transferred to 70 mosM modified Barth's buffer at 21° C.; oocyte swelling was monitored by videomicroscopy, and the coefficient of osmotic water permeability (Pf) was determined (Preston et al., 1992, 1993). Uptake of [^14 C]urea or [^14 C]glycerol was measured by incubating oocytes in 200 mosM Barth's buffer for 10-20 min at 21° C. followed by washing and SDS solubilization. No increase in ion conductance was found when control oocytes were compared to RNA-injected oocytes by two electrode voltage clamps (Preston et al., 1992). […]
# [3] = biological target: T2, AQP1 (Homo sapiens, UniProt P29972); test: Xenopus oocyte osmotic swelling assay, AQP1 RNA-injected oocytes (Example 4); format: cell-based; parameters: expressed in transfected cells; host or cells: Xenopus laevis oocytes injected with in vitro transcribed AQP1 RNA; conditions: for Pf (osmotic water permeability): AQP1 RNA-injected (10 ng) oocytes, 22° C.
# T2 sequence (P29972 1-269): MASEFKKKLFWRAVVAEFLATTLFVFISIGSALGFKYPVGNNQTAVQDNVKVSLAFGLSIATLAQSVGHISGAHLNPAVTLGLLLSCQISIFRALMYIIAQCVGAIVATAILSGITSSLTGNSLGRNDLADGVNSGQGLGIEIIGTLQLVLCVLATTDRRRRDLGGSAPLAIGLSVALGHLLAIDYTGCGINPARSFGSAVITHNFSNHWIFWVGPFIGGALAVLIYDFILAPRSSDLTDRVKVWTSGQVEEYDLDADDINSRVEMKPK
# Method: (§1) Expression of AQP1 in Xenopus oocytes. Oocytes were removed from female Xenopus laevis frogs and prepared as described by Dascal (CRC Crit. Rev. Biochem., 1987, 22:317-373). Oocytes were injected with 0.05 microliters of water (control) or the same volume of water containing 1-10 nanograms of AQP1 RNA. The oocytes were incubated for up to 96 hours at 18° C. in modified Barth's buffer (88 mM NaCl, 1 mM KCl, 0.8 mM MgSO4, 0.3 mM Ca(NO3)2, 0.4 mM CaCl2, 2.4 mm NaHCO3, 10 mM HEPES, pH=7.4, total osmolality=200 mOsm/kg) also containing antibiotics. The whole oocytes were then removed and total cellular protein was dissolved in 40 microliters of buffer containing 1% (w/v) SDS and analyzed by immunoblot (Towbin et al., 1979, Proc. Natl. Acad. Sci. USA 76:4350-4354).
# (§2) A swelling assay was adapted from that of published work (Fischbarg et al., 1990, Proc. Natl. Acad. Sci. USA 87:3244-3247; Zhang et al., 1990, J. Biol. Chem. 265: 15375-15378). Control-injected oocytes and AQP1 RNA-injected oocytes were incubated at 22° C. in modified Barth's solution diluted with distilled H2 O to 30% of the original tonicity. The oocytes were then observed by videomicroscopy. Swelling was monitored with a Nikon phase-contrast microscope equipped for videorecording. The longest (D1) and shortest (D2) diameters of the oocytes were measured at 15- to 30-second intervals. Oocyte volumes (V) at each time point were calculated relative to volume at the initial observation (Vo):
# The change in relative volume with time, d(V/Vo)/dt, up to 8 minutes (or time of oocyte rupture) was fitted by computer to a quadratic polynomial, and initial rates of swelling were calculated. Osmotic water permeability (Pf, in cm/s) was calculated from osmotic swelling data, initial oocyte surface area (S=0.045 cm^2), and the molar volume of water (Vw =18 cm^3 /mol) (Zhang et al., 1990, J. Biol. Chem. 15375):
# Pf =Vo ×d(V/Vo)dt]/[S×Vw x(osmm
# After 72 hours, control- or AQP1 RNA-injected (10 ng) oocytes were treated as indicated. Some oocytes were left in standard Barth's buffer prior to measurement of osmotic swelling at 22° C. Other oocytes were incubated 5 minutes in Barth's buffer containing 0.3 mM or 3 mM HgCl2 as described, then removed and incubated for 15 min in 5 mM β-mercaptoethanol prior to osmotic swelling in the presence of β-mercaptoethanol.
# After 72 hours, control-injected oocytes and oocytes injected with 0.1 to 10 ng of AQP1 RNA were studied for osmotic swelling at 22° C. The amount of AQP1 protein was estimated by dilutional immunoblotting (Denker et al., 1988, J. Biol. Chem. 263:15634; Laemmli, 1970, Nature 227:680; Towbin et al., 1979, Proc. Natl. Acad. Sci., 76:4350; Davis and Bennett, 1982, 257:5816).
# [4] = test system: control-injected oocytes; test: Xenopus oocyte osmotic swelling assay, control-injected oocytes; format: cell-based, Xenopus laevis; conditions: no RNA injected, 0.3 mM HgCl2, 22° C.
# Method: as §1
# as §2, with “Control-injected oocytes and AQP1 RNA-injected oocytes were incubated at 22° C. in modified Barth's solution diluted with distilled H2 O to 30% of the original tonicity. The oocytes were then observed by videomicroscopy.” left out, “(Vo): […]” for “(Vo):”
smiles,measurement,setting,value
OCCS [β-mercaptoethanol],restoration of the membrane water channel after HgCl2,[1]; 5 mM β-mercaptoethanol,may be restored
same,restoration of Pf of AQP5-expressing oocytes after HgCl2,[2]; 5 mM β-mercaptoethanol 30 min after 1 mM HgCl2,restored
same,restoration of swelling after HgCl2 inhibition,[3]; 5 mM β-mercaptoethanol after 0.3 mM HgCl2,restored
[Cl][Hg][Cl] [HgCl2],inhibition of the red cell / membrane water channel,[1]; submillimolar concentrations,can be inhibited by submillimolar concentrations
same,inhibition of Pf of AQP5-expressing oocytes,"[2]; 1 mM HgCl2, 5 min",comparable reduction; also recorded: reversibly inhibited
same,Pf (osmotic water permeability),[4],20.3 cm/s x 10^-4
same,inhibition of swelling of AQP1 RNA-injected oocytes,[3]; 0.3 mM HgCl2,inhibited
same,Pf (osmotic water permeability),[3]; 0.3 mM HgCl2 5 minutes,80.7 cm/s x 10^-4
same,Pf (osmotic water permeability),[3]; 3.0 mM HgCl2 5 minutes,34.5 cm/s x 10^-4
